From US12187723B2 (BRISTOL-MYERS SQUIBB COMPANY, priority 2019, dated 2025) come the findings set out here.

One experiment has as its target T1, human TLR7 (Homo sapiens, UniProt Q9NYK1).
T1 construct: host or cells: HEK-Blue cells
T1 sequence (Q9NYK1 27-1049): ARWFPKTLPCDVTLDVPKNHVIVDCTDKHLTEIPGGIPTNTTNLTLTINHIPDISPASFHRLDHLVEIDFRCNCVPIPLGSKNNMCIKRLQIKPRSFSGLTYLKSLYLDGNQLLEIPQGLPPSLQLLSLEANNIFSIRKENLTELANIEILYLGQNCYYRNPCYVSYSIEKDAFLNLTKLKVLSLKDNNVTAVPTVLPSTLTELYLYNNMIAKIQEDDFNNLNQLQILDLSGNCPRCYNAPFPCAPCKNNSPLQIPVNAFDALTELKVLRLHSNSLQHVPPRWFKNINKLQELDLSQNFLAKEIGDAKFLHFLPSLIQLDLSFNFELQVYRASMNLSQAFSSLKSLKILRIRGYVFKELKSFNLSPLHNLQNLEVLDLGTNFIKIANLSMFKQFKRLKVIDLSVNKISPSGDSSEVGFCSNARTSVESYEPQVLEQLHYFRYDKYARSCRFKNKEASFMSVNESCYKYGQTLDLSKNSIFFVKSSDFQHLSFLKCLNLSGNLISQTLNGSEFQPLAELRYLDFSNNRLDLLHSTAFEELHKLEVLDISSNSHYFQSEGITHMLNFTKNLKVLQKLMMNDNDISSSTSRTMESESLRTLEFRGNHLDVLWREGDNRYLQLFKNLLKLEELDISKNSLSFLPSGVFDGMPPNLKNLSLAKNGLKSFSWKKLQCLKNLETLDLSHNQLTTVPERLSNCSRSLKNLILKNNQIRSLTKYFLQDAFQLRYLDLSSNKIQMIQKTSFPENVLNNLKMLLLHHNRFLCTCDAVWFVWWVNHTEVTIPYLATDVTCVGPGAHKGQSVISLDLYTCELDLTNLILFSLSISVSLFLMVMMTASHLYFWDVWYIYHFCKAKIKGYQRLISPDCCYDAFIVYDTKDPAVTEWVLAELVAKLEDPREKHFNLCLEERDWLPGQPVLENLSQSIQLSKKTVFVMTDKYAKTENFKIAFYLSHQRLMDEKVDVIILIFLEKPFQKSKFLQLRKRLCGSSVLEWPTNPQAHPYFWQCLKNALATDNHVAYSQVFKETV
Kind of experiment: TLR7 inhibition reporter assay (HEK-Blue SEAP). It counts as cell-based. Particulars: HEK-Blue cells overexpressing human TLR7, gardiquimod 7.5 μM, 22 hour incubation. The procedure, abridged: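 HEK-Blue reporter cells (15,000/well TLR7, 20,000 TLR8) exposed to compound over 0.05 nM–50 μM, agonist-stimulated (R848 for TLR8, gardiquimod for TLR7), 22 h at 37 °C, 5% CO2. SEAP read with HEK-Blue Detection; % inhibition relative to agonist-plus-DMSO and known-inhibitor controls.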

The next experiment concerns the target T2, human TLR8 (Homo sapiens, UniProt Q9NR97).
T2 construct: host or cells: HEK-Blue cells
T2 sequence (Q9NR97 27-1041): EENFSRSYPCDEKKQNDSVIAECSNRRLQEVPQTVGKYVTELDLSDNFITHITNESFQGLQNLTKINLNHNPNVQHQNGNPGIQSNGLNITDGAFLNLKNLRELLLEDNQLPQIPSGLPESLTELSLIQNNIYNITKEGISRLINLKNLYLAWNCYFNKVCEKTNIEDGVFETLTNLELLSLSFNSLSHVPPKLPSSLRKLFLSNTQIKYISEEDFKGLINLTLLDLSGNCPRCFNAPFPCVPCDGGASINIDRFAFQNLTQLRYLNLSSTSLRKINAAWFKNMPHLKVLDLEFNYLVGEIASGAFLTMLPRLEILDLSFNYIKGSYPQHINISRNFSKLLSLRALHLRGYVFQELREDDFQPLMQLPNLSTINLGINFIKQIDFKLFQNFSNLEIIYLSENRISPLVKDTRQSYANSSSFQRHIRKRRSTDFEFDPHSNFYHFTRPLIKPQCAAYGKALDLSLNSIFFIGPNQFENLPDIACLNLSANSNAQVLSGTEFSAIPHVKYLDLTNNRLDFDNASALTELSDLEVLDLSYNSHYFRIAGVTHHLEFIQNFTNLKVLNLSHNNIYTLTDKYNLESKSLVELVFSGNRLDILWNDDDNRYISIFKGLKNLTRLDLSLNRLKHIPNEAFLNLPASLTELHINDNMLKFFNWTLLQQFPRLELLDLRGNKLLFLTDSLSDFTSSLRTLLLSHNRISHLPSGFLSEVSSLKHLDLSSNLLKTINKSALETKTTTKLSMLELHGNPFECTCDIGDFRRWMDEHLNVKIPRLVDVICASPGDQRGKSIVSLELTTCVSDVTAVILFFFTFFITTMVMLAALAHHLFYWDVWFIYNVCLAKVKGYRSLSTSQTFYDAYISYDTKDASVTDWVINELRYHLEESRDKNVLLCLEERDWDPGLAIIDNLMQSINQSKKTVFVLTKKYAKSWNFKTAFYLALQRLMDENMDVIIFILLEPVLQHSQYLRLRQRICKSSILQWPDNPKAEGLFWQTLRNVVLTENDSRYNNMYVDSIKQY
Kind of experiment: TLR8 inhibition reporter assay (HEK-Blue SEAP). The format is cell-based. Particulars: HEK-Blue cells overexpressing human TLR8, R848 15.9 μM, 22 hour incubation. The procedure, abridged: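 Agonists used: gardiquimod 7.5 μM (TLR7), R848 15.9 μM (TLR8), ODN2006 5 nM (TLR9), added after 30 min room-temperature compound pre-treatment (0.05 nM–50 μM) of receptor-overexpressing HEK-Blue cells. SEAP reporter (NF-κB/AP-1 driven) read after 22 h at 37 °C; inhibition scaled between agonist+DMSO and reference-inhibitor wells.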
Background: A reporter such as luciferase makes a cellular process visible.

Molecules are shown by their SMILES.

For the compound `COc1cc(-c2cc3[nH]c(=O)n([C@@H]4CCCN(C)C4)c3cc2C(F)(F)F)cn2ncnc12` [Example 114, (R)-5-(8-methoxy-[1,2,4]triazolo[1,5-a]pyridin-6-yl)-1-(1-methylpiperidin-3-yl)-6-(trifluoromethyl)-1,3-dihydro-2H-benzo[d]imidazol-2-one], the values for the IC50 on human TLR7 and against human TLR8 were 0.00287 µM and 0.00029 µM, respectively.

With `CCCN1CCC[C@@H](n2c(=O)[nH]c3cc(-c4cc(OC)c5ncnn5c4)c(C(F)(F)F)cc32)C1` [Example 115, (R)-5-(8-methoxy-[1,2,4]triazolo[1,5-a]pyridin-6-yl)-1-(1-propylpiperidin-3-yl)-6-(trifluoromethyl)-1,3-dihydro-2H-benzo[d]imidazol-2-one], the IC50 (usually the concentration that gives 50% inhibition) against human TLR7 worked out at 0.0341 µM; at human TLR8, 0.0144 µM.

On to `COc1cc(-c2cc3[nH]c(=O)n([C@H]4CCCN(C5COC5)C4)c3cc2C(C)C)cn2ncnc12` [Example 123, (S)-6-isopropyl-5-(8-methoxy-[1,2,4]triazolo[1,5-a]pyridin-6-yl)-1-(1-(oxetan-3-yl)piperidin-3-yl)-1,3-dihydro-2H-benzo[d]imidazol-2-one], for which the IC50 on human TLR7 is 0.125 µM; against human TLR8, 0.00556 µM.

Regarding `COc1cc(-c2cc3[nH]c(=O)n([C@H]4CCCN(CC5CC5)C4)c3cc2C(C)C)cn2ncnc12` [Example 127, (S)-1-(1-(cyclopropylmethyl)piperidin-3-yl)-6-isopropyl-5-(8-methoxy-[1,2,4]triazolo[1,5-a]pyridin-6-yl)-1,3-dihydro-2H-benzo[d]imidazol-2-one], the results for the IC50 against human TLR7 and at human TLR8 were 0.0143 µM and 0.0028 µM, respectively.

Consider `COc1cc(-c2cc3[nH]c(=O)n([C@@H]4CCCN(C5COC5)C4)c3cc2C(F)(F)F)cn2ncnc12` [Example 113, (R)-5-(8-methoxy-[1,2,4]triazolo[1,5-a]pyridin-6-yl)-1-(1-(oxetan-3-yl)piperidin-3-yl)-6-(trifluoromethyl)-1,3-dihydro-2H-benzo[d]imidazol-2-one], for which the IC50 on human TLR7 was 0.488 µM; against human TLR8 it was 0.113 µM.

As to `CCC(CC)CN1CCC[C@H](n2c(=O)[nH]c3cc(-c4cc(OC)c5ncnn5c4)c(C(C)C)cc32)C1` [Example 130, (S)-1-(1-(2-ethylbutyl)piperidin-3-yl)-6-isopropyl-5-(8-methoxy-[1,2,4]triazolo[1,5-a]pyridin-6-yl)-1,3-dihydro-2H-benzo[d]imidazol-2-one], the IC50 was determined as 0.0311 µM on human TLR7 and 0.00852 µM against human TLR8.

For the compound `COCCN1CCC[C@@H](n2c(=O)[nH]c3cc(-c4cc(OC)c5ncnn5c4)c(C)cc32)C1` [Example 98, (R)-5-(8-methoxy-[1,2,4]triazolo[1,5-a]pyridin-6-yl)-1-(1-(2-methoxyethyl)piperidin-3-yl)-6-methyl-1,3-dihydro-2H-benzo[d]imidazol-2-one], the IC50 turned out to be 0.0205 µM on human TLR7 and 0.0606 µM on human TLR8.

For the compound `COc1cc(-c2cc3[nH]c(=O)n(C4CCN(CC(C)C)CC4)c3cc2C(C)C)cn2ncnc12` [Example 164, 1-(1-isobutylpiperidin-4-yl)-6-isopropyl-5-(8-methoxy-[1,2,4]triazolo[1,5-a]pyridin-6-yl)-1,3-dihydro-2H-benzo[d]imidazol-2-one], the IC50 amounted to 0.0123 µM against human TLR7 and 0.00967 µM against human TLR8.

`Cc1cc(-c2ccc3c(c2)[nH]c(=O)n3C2CCN(C)CC2)cn2ncnc12` [Example 4, 5-(8-methyl-[1,2,4]triazolo[1,5-a]pyridin-6-yl)-1-(1-methylpiperidin-4-yl)-1,3-dihydro-2H-benzo[d]imidazol-2-one]: the IC50 was 0.863 µM against human TLR7 and 1.28 µM against human TLR8.
